This is an account of results in patent US10246414B2, “Allosteric modulators of CB1 cannabinoid receptors” (Northeastern University, priority 2012, dated 2019).

pEC50: −log10 of the molar value.

Assay [1] deals with extracellular dopamine levels in nucleus accumbens. The assay can be described thus: In vivo microdialysis, dopamine in shell of nucleus accumbens. Also on record: species or system Sprague-Dawley male rats. The note with it: 30 mg/kg IP, rat nucleus accumbens shell, dialysate samples every 20 minutes; ANOVA p=0.325, NS. As to the method:
Concentric microdialysis probes with 2 mm-long dialysis membranes were prepared as described previously (Pontieri, Tanda & DiChiara 1995). Sprague-Dawley male rats were anesthetized with Equithesin and probes were surgically implanted in the shell of nucleus accumbens (coordinates with respect to bregma: anterior, +2.2; lateral, −1.0; vertical −8.0 from dura). Ringer's solution (147 mM NaCl, 2.2 mM CaCl2, 4.0 mM KCl) was pumped through the dialysis probe at a constant flow rate of 1 uL/minute. […] Collection of dialysate samples started after 20 minutes, with samples collected every 20 minutes and immediately analyzed by a high-performance liquid chromatography system coupled to electrochemical detection to quantify dopamine.
Results are presented as group means (±SEM). Microdialysis data were analyzed using two-way ANOVA.

Assay [2] addresses CB1 cannabinoid receptors (CNR1 cAMP Hunter cell line) (Homo sapiens, UniProt P21554). The assay can be described thus: cAMP Hunter (DiscoveRx HitHunter cAMP XS+) allosteric modulation assay with CP55,940 at EC20. Type of assay: cell-based. On the procedure:
Once it was established that the cells were healthy and growing normally, cells were passaged from flasks using cell dissociation reagent buffer and seeded into white walled clear bottom 384-well microplates for compound profiling. For profiling, cells were seeded at a density of 10000 cells per well in a total volume of 20 μL and were allowed to adhere and recover overnight prior to compound addition. Cells were treated the following day using the protocols shown below. cAMP modulation was determined using the DiscoveRx HitHunter cAMP XS+ assay.
Media was aspirated from cells and replaced with 10 μL 1:1 HBSS/Hepes: cAMP XS+Ab reagent. Agonist (CP55,940) dose curves were performed to determine the EC20 value for the following testing with compounds. 5 μL of 4× agonist was added to each well with an equal concentration of vehicle present. EC20 agonist concentration was determined directly from agonist dose curve.
For allosteric determination, cells were preincubated with compound followed by agonist challenge at the EC20 concentration. 5 μL of 4× compound was added to cells and incubated at 37° C. for 30 minutes. 5 μL of 4× EC20 agonist was added to cells and incubated at 37° C. for 30 minutes.
Signal Detection: After appropriate compound incubation, assay signal was generated through incubation with 20 μL cAMP XS+ED/CL lysis cocktail for one hour followed by incubation with 20 μL cAMP XS+EA reagent for three hours at room temperature. Microplates were read following signal generation with a PerkinElmer Envision™ instrument for chemiluminescent signal detection.
Data Analysis: Dose curves were plotted using GraphPad Prism or Activity Base. The percentage activity is calculated using the following formula: % Activity=100%×(1−(mean RLU of test sample−mean RLU of MAX control)/(mean RLU of vehicle control [EC20 for PAM]−mean RLU of MAXcontrol).
Agonist (CP55,940) dose curves were performed for the CNR1 PathHunter and cAMP Hunter cell lines. […] The cAMP assay was performed in the presence of 20 μM forskolin (EC80).

Chain of CB1 cannabinoid receptors (CNR1 cAMP Hunter cell line) (P21554 whole entry): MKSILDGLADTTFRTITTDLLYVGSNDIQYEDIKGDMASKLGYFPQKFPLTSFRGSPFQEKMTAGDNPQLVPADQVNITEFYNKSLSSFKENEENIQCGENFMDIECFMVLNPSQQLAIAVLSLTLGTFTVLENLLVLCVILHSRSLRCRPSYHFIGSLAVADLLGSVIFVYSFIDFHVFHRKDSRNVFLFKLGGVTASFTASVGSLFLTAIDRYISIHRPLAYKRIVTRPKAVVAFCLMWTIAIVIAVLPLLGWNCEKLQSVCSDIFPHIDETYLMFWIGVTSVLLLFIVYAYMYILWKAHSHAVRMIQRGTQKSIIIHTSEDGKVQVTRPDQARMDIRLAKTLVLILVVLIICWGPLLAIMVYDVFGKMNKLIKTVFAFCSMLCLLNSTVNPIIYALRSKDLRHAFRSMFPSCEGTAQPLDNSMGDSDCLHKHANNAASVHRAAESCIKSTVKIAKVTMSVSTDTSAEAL

As to `O=[N+]([O-])CC(c1ccccc1)c1c(-c2ccccc2)[nH]c2ccccc12` (racemic) [Compound 1, 3-(2-Nitro-1-phenylethyl)-2-phenyl-1H-indole, reference compound], the “change in extracellular dopamine levels after injection” value in assay [1] was “no significant change”. In addition, the Emax – broadly, the greatest response seen or fitted, relative to the assay's reference – in assay [2] was 80%. With `O=[N+]([O-])CC(c1ccccn1)c1c(-c2ccccc2)[nH]c2ccccc12` (racemic) [Compound 10, 3-(2-Nitro-1-(pyridin-2-yl)ethyl)-2-phenyl-1H-indole], in assay [2], the pEC50 (as a rule, −log10 of the EC50, conventionally taken in molar units) was 6.34 and the Emax turned out to be 96%. `O=[N+]([O-])C[C@H](c1ccccc1)c1c(-c2ccccc2)[nH]c2ccccc12` (single isomer, unassigned) [Compound 2] gave a maximum response (Emax) in assay [2] of 75%. As to `O=[N+]([O-])C[C@@H](c1ccccc1)c1c(-c2ccccc2)[nH]c2ccccc12` (single isomer, unassigned) [Compound 3], the Emax in assay [2] turned out to be 96%.

In assay [2], `O=[N+]([O-])C[C@H](c1ccccn1)c1c(-c2ccccc2)[nH]c2ccccc12` (single isomer, unassigned) [Compound 11] had a pEC50 of 6.52 and a maximal effect (Emax) of 120%.

For the compound `O=[N+]([O-])C[C@@H](c1ccccn1)c1c(-c2ccccc2)[nH]c2ccccc12` (single isomer, unassigned) [Compound 12], in assay [2], the pEC50 is 6.38 and the Emax is 119%. The like results for `O=[N+]([O-])CC(c1ccc(N2CCCCC2)cc1)c1c(-c2ccccc2)[nH]c2ccccc12` (stereo not shown) [Compound 4, 3-(2-Nitro-1-(4-(piperidin-1-yl)phenyl)ethyl)-2-phenyl-1H-indole] were, in that order, 6.23 and 101%. The like results for `O=[N+]([O-])CC(c1ccc(-c2ccccc2)cc1)c1c(-c2ccccc2)[nH]c2ccccc12` (stereo not shown) [Compound 5, 3-(1-([1,1′-Biphenyl]-4-yl)-2-nitroethyl)-2-phenyl-1H-indole] were, in that order, under 5.00 and 0%. The like results for `O=[N+]([O-])CC(c1ccccc1)c1c(-c2ccc3ccccc3c2)[nH]c2ccccc12` (stereo not shown) [Compound 6] were, in that order, 6.13 and 65%.

In assay [2], `O=[N+]([O-])CC(c1ccccc1)c1c(-c2ccccc2)[nH]c2ccc(Cl)cc12` (stereo not shown) [Compound 7, 5-Chloro-3-(2-nitro-1-phenylethyl)-2-phenyl-1H-indole] had a negative logarithm of the EC50 (pEC50) of 6.00 and a maximum response (Emax) of 44%. For the compound `O=[N+]([O-])c1cccc(-c2c(-c3ccccc3)[nH]c3ccccc23)c1` [Compound 8, 3-(3-Nitrophenyl)-2-phenyl-1H-indole], in assay [2], the negative-log EC50 (pEC50) was under 5.00 and the Emax was determined as 54%.

On to `O=[N+]([O-])CC(c1ccccc1)c1cn(-c2ccccc2)c2ccccc12` (stereo not shown) [Compound 9, 3-(2-Nitro-1-phenylethyl)-1-phenyl-1H-indole], for which, in assay [2], the pEC50 was 6.04 and the maximal response (Emax) was determined as 105%. The like results for `O=[N+]([O-])CC(c1ccccc1)c1c(-c2ccc(F)cc2)[nH]c2ccccc12` (stereo not shown) [Compound 13, 2-(4-Fluorophenyl)-3-(2-nitro-1-phenylethyl)-1H-indole] were, in that order, 6.49 and 110%. The like results for `O=[N+]([O-])CC(c1ccccc1)c1c(-c2ccc(Cl)cc2)[nH]c2ccccc12` (stereo not shown) [Compound 14, 2-(4-Chlorophenyl)-3-(2-nitro-1-phenylethyl)-1H-indole] were, in that order, 6.19 and 115%.

Take `O=[N+]([O-])CC(c1ccccc1)c1c(-c2ccc(F)c(Cl)c2)[nH]c2ccccc12` (stereo not shown) [Compound 15, 2-(3-Chloro-4-fluorophenyl)-3-(2-nitro-1-phenylethyl)-1H-indole]: in assay [2], the negative-log EC50 (pEC50) is 6.39 and the maximum response (Emax) is 110%.
